The subject of one experiment is male Sprague Dawley rats. Nature of the experiment: Paw placement test after photothrombotic stroke in the rat. It counts as in vivo. As for the experimental part:
Animals. All experiments were carried out with the approval of the Malmö-Lund animal review board and according to the ARRIVE guidelines. Animals were housed under reverse light conditions, with the testing performed during the dark period when the rats are active. The experiments were carried out on male Sprague Dawley rats (11 weeks of age, Charles River, Scanbur A/S Karlslunde, Denmark). The studies were subjected to randomization and carried out in a blinded fashion to the investigators who performed the surgeries and behavioral assessment.
Administration of compound. The compound was injected as a bolus dose of 1 ml/kg into the lower quadrant of the abdomen.
(§1) Experimental stroke. The animals were anesthetized by isoflurane (approximately 2% in 02 under spontaneous ventilation) and placed into stereotaxic frame. Temperature was monitored during surgery using a rectal temperature probe and animals were kept at 37.0-37.5±0.2° C. by means of a heating pad with feedback control. A sagittal skin incision was made and subcutaneous connective tissue was removed and the skull was dried. Thereafter, the photosensitizer dye Rose Bengal (0.5 mL at 10 mg/mL) was infused in the tail vein. Two minutes after injection, the skull was illuminated with cold light (Schott, KL 1500 LCD) on an area of 8 to 4.5 mm for 15 min (from +4 to −4 mm antero-posterior and from 0.5 to 5 mm on the left from bregma). Thereafter the tail and the scalp incisions were sutured and the rats transferred to their home cage. The functional deficit was assessed 2 h after the onset of the stroke using the limb placement test and only the animals having a score 0, for both fore- and hindlimb contralateral to the brain damaged hemisphere were used for the study.
Test of neurological function. The paw placement test. The cortical damage inflicted by the phothrombosis, causes a deficit due to neuronal loss in the sensori-motor area and depression of functions in neuronal networks in the vicinity of the lesion. […] This test provides information on the tactile/proprioceptive response to limb stimulation. Animals were placed with all 4 paws on the table top, and the paws to be tested along the edge. The rat was moved over the edge so the paws to be tested loose contact with the table surface. The ability of the animals to place the limb back onto the table surface when the rat was moved towards the edge was evaluated. Importantly, the head was held at 45° angle, so that visual and whisker/snout stimulation was prevented. A prompt placement of the limb onto the table was scored as 1. Incomplete placing of the limb was scored as 0.5, and complete extension of the limb and paw was scored as 0. In order to obtain groups with a similar functional deficit prior to treatment of the animals with drugs or vehicle, selective sorting was performed on day 2 after experimental stroke, a time point of recovery when the infarct development had subsided.
(§2) Administration of the compounds. The compounds were administrated orally (p.o.) by catheters placed in the stomach. The amount of solutions were 0.2 ml/rat and 0.1 ml/mice.
(§3) Induction of stroke was as made as in Example 1 for rats and as in Example 2 in mice. Assessment of neurological function was performed as in Example 1 for rats and as in Example 2 for mice. The animals were perfused and immunostained as in Example 1, and the infarct size was assessed as in Example 1.
Induction of stroke, assessment of neurological function, perfusion of animals, immunostaining and assessment of infarct size were made as in Example 1.

For experiment [1], the system named is male C57/BL6 mice. Description: Paw placement test after photothrombotic stroke in the mouse. It counts as in vivo. The conditions noted are these: for paw function: continued for 5 days, FIG. 3C. The protocol: Animals. All experiments were carried out with the approval of the Malmo-Lund animal review board and according to the ARRIVE guidelines. The experiments were carried out on male C57/BL6 mice (8 weeks of age, Charles River Scanbur A/S Karlslunde, Denmark). Studies were subjected to randomization and carried out in a blinded fashion to the investigators who performed the surgeries and behavioral assessment.
Materials were as in Example 1 and the administration of the drug was made as in Example 1. Also the positive allosteric modulator (PAM) for the mGlur5 receptor was SIN006 (N-Cyclobutyl-6-[2-(3-fluorophenyl)ethynyl]-3-pyridinecarboxamide hydrochloride; VU0360172).
Induction of stroke in the mouse. Mice were subjected to unilateral photothrombotic (PT) cortical infarct in the left sensori-motor cortex. During surgery, the body temperature of the animals was kept at 37° C. using a self-regulating heating pad. Animals were anesthetized using 1.5-2.5% isoflurane (Sigma) in 100% 02. The skin above the skull was incised; a fiber optic bundle with a 2.5 mm aperture diameter was connected to a cold light source (CL 1500 ECO, Zeiss, Germany) and adjusted to the stereotaxic coordinates of the sensori-motor cortex, 0.5 mm anterior to bregma and 1.5 mm lateral to midline. One intraperitoneal (i.p.) injection of 0.25 ml Rose Bengal (10 mg/ml in 0.9% saline; Sigma-Aldrich, Germany) was given 5 min before the light was turned on for 20 minutes. Care was taken not to exceed 38° C. at the skull surface, underneath the fiber optic bundle. Post surgery, animals were allowed to awake from anesthesia while on a heating pad and returned to the cages with free access to food pellets and water.
Enriched housing. It is well known that housing of rodents in an enriched environment stimulates the various sensori-motor systems of the brain enhancing recovery after experimental stroke. Enriched housing was accomplished by the following procedure. After selective sorting at day 2 after stroke, mice were randomly distributed into standard (STD, 17 cm×16 cm×34.5 cm) or enriched cages (EE, 30 cm×27 cm×43 cm). Multilevel-enriched cages were equipped with various colored objects such as plastic tunnels, small houses, slides and rodent running wheels; the disposition of the objects was changed every second day. Mice were housed in either standard (2 animals/cage) or enriched cages (6-8 animals/cage) for 12 days. Animals in standard cages were handled similarly except for the housing condition.
Paw placement test. The mouse was held along its rostro-caudal extension on the edge of a bench and both the unilateral front and hind paws were gently pushed along it. The placement of each paw was recorded when the mouse was moved towards the edge. Sensori-motor dysfunction was assessed by using a score of 1, 0.5, and 0: (1)—the paw is immediately placed on the table surface; (0.5)—the limb is extended, but with some movements and attempts to place the paw on the surface of the table; (0)—the paw is totally immobilized, hanging down, with no movement. In order to obtain groups with a similar functional deficit prior to treatment of the animals with drugs or vehicle, selective sorting was performed on day 2 after experimental stroke, a time point of recovery when the infarct development had subsided.
as §2, §3

For another experiment, the system named is mGluR5 KO rats. Nature of the experiment: Paw placement test after stroke in mGluR5 KO rats. The experiment is classed as in vivo, rat. The following applies: SIN013 treatment, FIG. 3D. The protocol: as §1, with “Two minutes after injection, the skull was illuminated with cold light (Schott, KL 1500 LCD) on an area of 8 to 4.5 mm for 15 min (from +4 to −4 mm antero-posterior and from 0.5 to 5 mm on the left from bregma). Thereafter the tail and the scalp incisions were sutured and the rats transferred to their home cage.” left out
Test of neurological function. […] The ability of the animals to place the limb back onto the table surface when the rat was moved towards the edge was evaluated. […] A prompt placement of the limb onto the table was scored as 1. Incomplete placing of the limb was scored as 0.5, and complete extension of the limb and paw was scored as 0. […]
Induction of stroke was as made as in Example 1 for rats and as in Example 2 in mice. […] The animals were perfused and immunostained as in Example 1, and the infarct size was assessed as in Example 1.

In experiment [2] the test system is male C57/BL6 mice. Description: Paw placement test after photothrombotic stroke in the mouse. It counts as in vivo.

For the compound `N#Cc1cc(F)cc(-c2nc(-c3ccc(F)cn3)no2)c1` [SIN 015, 3-fluoro-5-(3-(5-fluoropyridin-2-yl)-1,2,4-oxadiazol5-yl)benzonitrile], in the experiment with male Sprague Dawley rats (rat, 3 mg/kg for 5 days starting 2 days after stroke, FIG. 4C), the recovery of function result is given as “improved recovery of function”.

Consider `COC(=O)N1CC[C@@H]2[C@H]1CCC[C@@]2(O)C#Cc1cccc(C)c1` [SIN 011, (3aR,4S,7aR)-Octahydro-4-hydroxy-4 [2-(3-methylphenyl)ethynyl]-1H-indole-1-carboxylic acid methyl ester], for which the paw placement function result in the experiment with male C57/BL6 mice [1] (mouse, 30 mg/kg p.o. daily for 5 days, started 2 days after stroke, vs vehicle, p<0.01, FIG. 3B) is given as “significant recovery of paw function”.

On to `Cc1nc(C#Cc2ccnc(Cl)c2)c(C)n1-c1ccc(OC(F)(F)F)cc1` [SIN013, 2-chloro-4-[2-[2,5-dimethyl-1-[4-(trifluoromethoxy)phenyl]imidazol-4-yl]ethynyl]pyridine], for which the paw function entry in the experiment with male C57/BL6 mice [1] (mouse, 2 mg/kg daily, started 2 days after stroke, p<0.05) is given as “enhancement of function, which was significant”; with male C57/BL6 mice [1] (mouse, 2 mg/kg every 48 h, started 2 days after stroke) it was “enhancement of function”. In addition, in the experiment on male Sprague Dawley rats (wild type rat, 2 mg/kg/day p.o. for 5 days, initiated 2 days after stroke, vs vehicle, FIG. 3D), the paw placement function result was “significantly improved paw placement function”. The “recovery of paw placement function” value with mGluR5 KO rats is “recovery stimulated by SIN013 treatment was not seen”. With `Cl.O=C(NC1CCC1)c1ccc(C#Cc2cccc(F)c2)nc1` [SIN006, N-Cyclobutyl-6-[2-(3-fluorophenyl)ethynyl]-3-pyridinecarboxamide hydrochloride], the “effect on enhanced recovery of function by enriched environment” value in the experiment on male C57/BL6 mice [2] (SIN006 30 mg/kg p.o. concomitant with 5 days enriched housing after stroke, FIG. 2E) is listed as “completely blocked”. Further, the “paw placement score after 5 days of treatment” value in the experiment with male C57/BL6 mice [2] (SIN006 30 mg/kg p.o. daily, 1 hour prior to SIN007 5 mg/kg i.p., starting two days after stroke, FIG. 2D) is “did not recover function”. Turning to `CN1CC(=O)N=C1NC(=O)Nc1cccc(Cl)c1` [SIN010, 1-(3-chlorophenyl)-3-(3-methyl-5-oxo-4H-imidazol-2-yl)urea], the “recovery of function, combined with enriched housing” value with male C57/BL6 mice [1] (mice, daily SIN010 plus enriched housing from 2 days after stroke, vs Vh, EE alone or SIN010 alone, FIG. 4B) is on record as “further improves recovery”. Also, the recovery of function result in the experiment on male Sprague Dawley rats (rat, 10 mg/kg p.o. daily for 5 days or 12 days, initiated 2 days after stroke, FIG. 4A) is reported as “improves recovery function”. Further, the “improvement of function, time dependence” value in the experiment on male Sprague Dawley rats (rat, 10 mg/kg p.o. daily for 12 days, initiated 2 days after stroke, vs vehicle, FIG. 4A) is “significant after 12 days of treatment”. For `Cc1nc(C#Cc2ccnc(Cl)c2)c(C)n1-c1ccc(F)cc1` [SIN014], the functional recovery result with male C57/BL6 mice [1] (mouse, 10 mg/kg p.o. for 5 days (higher dose; lower dose 5 mg/kg p.o.), FIG. 3E) is recorded as “improved functional recovery at the higher dose”. Turning to `Fc1ccc2nc(CCC#Cc3ccccn3)cn2c1` [SIN008, 6-Fluoro-2-[4-(pyridin-2-yl)-3-butynyl]imidazo[1,2-a]pyridine], in the experiment on male Sprague Dawley rats (rat, 30 mg/kg p.o. for 5 days, started 2 days after stroke, vs vehicle, FIG. 3A), the “neurological function (paw placement)” value is given as “significantly improved neurological function”.

(Values after patent publication US11033545B2, “Negative allosteric modulators of MGLUR5 for use in the treatment of mature brain damages” (Sinntaxis AB, priority 2016, dated 2021).)
